Several values for one entry are separate records, joined by “and”; a condition that tells them apart may be missing. Equal entries are not always repeated.
Columns and labels:
[1] = 298.15 K, 101.3 kPa, Liquid; for viscosity: Capillary tube (Ostwald / Ubbelohde) method; for speed of sound: Linear variable-path acoustic interferometer; for mass density: Pycnometric method
[2] = refractive index (Na D-line) (dimensionless); settings: 298.15 K; 101.33 kPa; Liquid
[3] = xn = mol fraction of the nth substance listed; settings: 298.15 K, 101.3 kPa, Liquid; for viscosity: Capillary tube (Ostwald / Ubbelohde) method; for speed of sound: Linear variable-path acoustic interferometer; for mass density: Pycnometric method
[4] = refractive index (Na D-line) (dimensionless); xn = mol fraction of the nth substance listed; settings: 298.15 K, 101.3 kPa, Liquid

C1COCO1 [1,3-dioxolane]
Settings	mass density [kg/m3]	refractive index	speed of sound	viscosity [mPa·s]
[1]	1058.7	–	1339.4 m/s and 1339.5 m/s	0.5894
[2]	–	1.3985	–	–

C1COCO1 [1,3-dioxolane] + CCCCCO
Settings	mass density, [3] [kg/m3]	refractive index, [4]	speed of sound, [3] [m/s]	viscosity, [3] [mPa·s]
x1 = 0.1168	832.9	1.4085	1278.8	2.505
x1 = 0.2293	854.5	1.4072	1287.5	1.885
x1 = 0.3377	876.6	1.406	1296.8	1.44
x1 = 0.4424	899.2	1.405	1305	1.063
x1 = 0.5434	922.5	1.404	1313.4	0.9063
x1 = 0.6409	946.8	1.403	1321.5	0.756
x1 = 0.7352	972.5	1.4022	1327.1	0.6472
x1 = 0.8264	999.3	1.401	1332.7	0.5704
x1 = 0.9146	1028.2	1.4	1337	0.5413
x1 = 1	1058.7	1.3985	1339.5	0.5894

C1COCO1 [1,3-dioxolane] + CCOCC
x1 = 1
Settings	mass density [kg/m3]	refractive index	speed of sound [m/s]	viscosity [mPa·s]
[3]	1058.7	–	1339.4	0.5894
[4]	–	1.3985	–	–

CCOCC [diethyl ether]
Settings	mass density [kg/m3]	refractive index	speed of sound [m/s]	viscosity [mPa·s]
[1]	708.3	–	982.3	0.2469
[2]	–	1.3515	–	–

CCOCC [diethyl ether] + C1COCO1
Settings	mass density, [3] [kg/m3]	refractive index, [4]	speed of sound, [3]	viscosity, [3] [mPa·s]
x2 = 0	708.3	1.3515	982.3 m/s	0.2469
x2 = 0.1	736.4	1.3568	1003.9 m/s	0.2656
x2 = 0.2	765.6	1.3604	1033.4 m/s	0.2844
x2 = 0.3001	796.3	1.3649	1067.4 m/s	0.3055
x2 = 0.4001	829	1.3696	1108.5 m/s	0.331
x2 = 0.5001	863.4	1.3743 and 1.375	1152.8 m/s and 1149.2 m/s	0.3604
x2 = 0.6001	899.7	1.3791	1191.4 m/s	0.3944
x2 = 0.7001	938.2	1.3842	1230.9 m/s	0.4345
x2 = 0.8	977	1.3893	1265.3 m/s	0.4784
x2 = 0.9	1018.4	1.3956	1302.4 m/s	0.5305

CCOCC [diethyl ether] + CCCCCO
Settings	mass density, [3] [kg/m3]	refractive index, [4]	speed of sound, [3] [m/s]	viscosity, [3] [mPa·s]
x1 = 0.1167	805.2	1.4043	1241.8	2.651
x1 = 0.2292	797.5	1.3977	1216.7	1.966
x1 = 0.3377	788.9	1.3922	1193.9	1.491
x1 = 0.4423	779.7	1.3874	1172.2	1.123
x1 = 0.5433	770.4	1.3825	1141.6	0.8294
x1 = 0.6409	759.5	1.3774	1110.7	0.6199
x1 = 0.7352	747.9	1.3724	1077.3	0.4811
x1 = 0.8263	736.1	1.3664	1046.3	0.382
x1 = 0.9146	723	1.3601	1011.2	0.3141
x1 = 1	708.3	1.3515	982.3	0.2469

CCCCCO [pentan-1-ol]
Settings	mass density [kg/m3]	refractive index	speed of sound [m/s]	viscosity
[1]	811.2	–	1271.6	3.504 mPa·s and 3.404 mPa·s
[2]	–	1.41	–	–

CCCCCO [pentan-1-ol] + C1COCO1
x2 = 0
Settings	mass density [kg/m3]	refractive index	speed of sound [m/s]	viscosity [mPa·s]
[3]	811.2	–	1271.6	3.504
[4]	–	1.41	–	–

CCCCCO [pentan-1-ol] + CCOCC
x2 = 0
Settings	mass density [kg/m3]	refractive index	speed of sound [m/s]	viscosity [mPa·s]
[3]	811.2	–	1271.6	3.504
[4]	–	1.41	–	–

— the NIST ThermoML archive (doi:10.1021/je100594u)
